Experiments:
Ca^2+-ATPase (SERCA1a) = Ca^2+-ATPase (SERCA1a) (Oryctolagus cuniculus, UniProt P04191); assay: ATP hydrolysis assay, SERCA; type: biochemical, rabbit; settings: Table 2; pH 7, n = 2; rabbit SERCA1a; read-out: IC50 for ATP hydrolysis, SERCA
Protocol: (§1) Rabbit sarcoplasmic reticulum membranes containing sarcoplasmic endoplasmic reticulum Ca^2+-ATPase (SERCA) were kindly provided by Claus E. Olesen and Jesper V. Møller, Aarhus University, and prepared as described in reference. Porcine kidney Na^+,K^+-ATPase was kindly provided by Natalya Fedosova, Aarhus University, and prepared as described in reference.
(§2) The protein activity levels were determined by measuring the amount of free phosphate produced from the ATP hydrolysis reaction. The assay was performed as described in reference. Each well contained ATPase enzyme, 2 μl of inhibitor (usually in the range of 333 to 0.01 μM) dissolved in dimethyl sulfoxide (DMSO) (Duchefa Biochemie, Haarlem, The Netherlands), and an assay buffer dependent on the enzyme for a final volume of 60 μl. Possible compound precipitation in the assay buffer was monitored using a Nephelostar plate reader measuring turbidity, and the information was taken into account in the IC50 determination. Pma1 assay buffer consisted of 20 mM 3-(N-morpholino)propanesulfonic acid (MOPS)–NaOH, pH 6.5 or 7.0, 8 mM MgSO4, 50 mM KNO3 (a vacuolar ATPase inhibitor), 25 mM sodium azide (a mitochondrial ATPase inhibitor), and 250 μM sodium molybdate (an acid phosphatase inhibitor). SERCA buffer consisted of 9 mM MOPS-NaOH, pH 7, 2.7 mM MgCl2, 90 μM CaCl2, and 72 mM KCl. Na^+,K^+-ATPase buffer consisted of 30 mM MOPS-NaOH, pH 7, 40 mM NaCl, 4 mM MgCl2, and 20 mM KCl. The concentration of protein was adjusted to obtain a signal of the optical density at 860 nm (OD860) of between 0.5 and 1.0 in the untreated samples (for all Pma1 batches, ∼1 to 2 μg/well; for SERCA and Na^+,K^+-ATPase, ∼0.1 to 0.2 μg/well).

Na^+,K^+-ATPase = biological target: T1, Na^+,K^+-ATPase (Sus scrofa, UniProt P05024); assay: ATP hydrolysis assay, Na+,K+-ATPase; type: biochemical, porcine; settings: Table 2; pH 7, n = 2; porcine kidney; read-out: IC50 for ATP hydrolysis, Na^+,K^+-ATPase
T1 construct: from tissue; host or cells: porcine kidney (gift of Natalya Fedosova, Aarhus University)
Protocol: as §1, §2

C. albicans Pma1 = biological target: T2, C. albicans Pma1 (Candida albicans, UniProt P28877); assay: ATP hydrolysis assay, C. albicans Pma1; type: biochemical; settings: Table 2; pH 7, n = 2; read-out: IC50 for ATP hydrolysis, C. albicans Pma1
T2 construct: endogenous in cells
Protocol: A 100-ml overnight culture in YPD medium [10 g/liter yeast extract (BD, Sparks, MD), 20 g/liter Bacto peptone (BD), 20 g/liter D-(+)-glucose] was transferred to 1 liter YPD medium and grown at room temperature and 150 rpm for 18 h for wild-type S. cerevisiae (ATCC 9763) and 7 h for C. albicans. The cells were harvested and washed in Milli-Q H2O by centrifugation at 3,360 × g. The cells were glucose activated by the addition of 10% D-(+)-glucose for 10 min while shaking. The cells were then centrifuged at 3,360 × g for 3 min and frozen. Cells (60 to 80 g, wet weight) were then disrupted by bead beating (BioSpec, Bartlesville, OK) and processed as described in reference to prepare the plasma membranes. […] All batches were validated by ATPase hydrolysis activity, pH optimum, and orthovanadate sensitivity.
as §2, with “μg/well). BM2 ([…]-NH2, D-form amino acids) was custom synthesized by Peptide 2.0 (Chantilly, VA).” for “μg/well).”

[1] = test system: Aspergillus flavus ATCC MYA-1005; assay: microbe, parasite or virus in culture; type: cell-based; settings: Table 3; read-out: MIC for growth inhibition, A. flavus
Protocol: (§3) The following fungal isolates were used: Saccharomyces cerevisiae ATCC 9763, Candida albicans SC5314, Candida parapsilosis ATCC 22019, Candida tropicalis Ct016, Candida glabrata ATCC 90030, Aspergillus fumigatus ATCC 13073, and Aspergillus flavus ATCC MYA-1005. Frozen stocks of yeast isolates in glycerol (final concentration, 20%) were prepared by growing the cells to log phase in YPD medium at 30°C and 150 rpm. Frozen stocks of mold spores were prepared by harvesting spores from 7-day-old potato glucose agar plates in phosphate-buffered saline, 0.1% Tween 80 and aliquoting these spores in the presence of glycerol (final concentration, 20%). The cells were stored at −80°C. The cells or spores were thawed and diluted to a final concentration of 0.5 × 10^5 to 2.5 × 10^5 CFU/ml in sterile Milli-Q H2O. […] The plate was incubated for 20 to 24 h at 34°C (72 h for molds), and the OD490 was measured on a Victor X5 (PerkinElmer) plate reader. Mold growth assay plates were also visually inspected. The MIC was defined as the lowest concentration inhibiting the visual growth of the microorganism. Standard errors were typically below 5%.

[2] = test system: Saccharomyces cerevisiae ATCC 9763; assay: microbe, parasite or virus in culture; type: cell-based; settings: Table 3; read-out: MIC for growth inhibition, S. cerevisiae
Protocol: as §3

T2 sequence (P28877 whole entry): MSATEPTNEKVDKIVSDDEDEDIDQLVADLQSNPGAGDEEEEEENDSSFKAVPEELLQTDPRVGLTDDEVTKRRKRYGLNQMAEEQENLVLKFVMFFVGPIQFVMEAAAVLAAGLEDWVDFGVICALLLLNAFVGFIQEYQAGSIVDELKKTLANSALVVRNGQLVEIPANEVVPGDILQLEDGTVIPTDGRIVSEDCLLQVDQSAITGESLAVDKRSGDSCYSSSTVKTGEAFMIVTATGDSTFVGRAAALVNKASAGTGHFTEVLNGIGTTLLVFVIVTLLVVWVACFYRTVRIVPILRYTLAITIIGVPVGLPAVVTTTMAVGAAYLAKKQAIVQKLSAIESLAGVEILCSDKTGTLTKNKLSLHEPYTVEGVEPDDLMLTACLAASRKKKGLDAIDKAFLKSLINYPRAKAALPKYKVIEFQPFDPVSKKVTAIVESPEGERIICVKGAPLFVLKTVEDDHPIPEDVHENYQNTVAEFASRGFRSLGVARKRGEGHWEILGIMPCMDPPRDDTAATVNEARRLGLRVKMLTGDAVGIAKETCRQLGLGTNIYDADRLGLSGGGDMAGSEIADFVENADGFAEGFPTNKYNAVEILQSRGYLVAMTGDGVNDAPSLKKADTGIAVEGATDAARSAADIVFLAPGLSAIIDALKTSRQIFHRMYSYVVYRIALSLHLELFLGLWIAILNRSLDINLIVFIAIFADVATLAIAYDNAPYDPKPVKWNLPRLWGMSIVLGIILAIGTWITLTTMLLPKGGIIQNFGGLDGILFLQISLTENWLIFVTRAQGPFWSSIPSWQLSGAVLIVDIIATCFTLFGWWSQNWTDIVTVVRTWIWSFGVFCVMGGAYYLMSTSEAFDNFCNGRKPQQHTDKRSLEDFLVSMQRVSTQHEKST
Sequence of Ca^2+-ATPase (SERCA1a) (P04191 1-994 isoform P04191-2): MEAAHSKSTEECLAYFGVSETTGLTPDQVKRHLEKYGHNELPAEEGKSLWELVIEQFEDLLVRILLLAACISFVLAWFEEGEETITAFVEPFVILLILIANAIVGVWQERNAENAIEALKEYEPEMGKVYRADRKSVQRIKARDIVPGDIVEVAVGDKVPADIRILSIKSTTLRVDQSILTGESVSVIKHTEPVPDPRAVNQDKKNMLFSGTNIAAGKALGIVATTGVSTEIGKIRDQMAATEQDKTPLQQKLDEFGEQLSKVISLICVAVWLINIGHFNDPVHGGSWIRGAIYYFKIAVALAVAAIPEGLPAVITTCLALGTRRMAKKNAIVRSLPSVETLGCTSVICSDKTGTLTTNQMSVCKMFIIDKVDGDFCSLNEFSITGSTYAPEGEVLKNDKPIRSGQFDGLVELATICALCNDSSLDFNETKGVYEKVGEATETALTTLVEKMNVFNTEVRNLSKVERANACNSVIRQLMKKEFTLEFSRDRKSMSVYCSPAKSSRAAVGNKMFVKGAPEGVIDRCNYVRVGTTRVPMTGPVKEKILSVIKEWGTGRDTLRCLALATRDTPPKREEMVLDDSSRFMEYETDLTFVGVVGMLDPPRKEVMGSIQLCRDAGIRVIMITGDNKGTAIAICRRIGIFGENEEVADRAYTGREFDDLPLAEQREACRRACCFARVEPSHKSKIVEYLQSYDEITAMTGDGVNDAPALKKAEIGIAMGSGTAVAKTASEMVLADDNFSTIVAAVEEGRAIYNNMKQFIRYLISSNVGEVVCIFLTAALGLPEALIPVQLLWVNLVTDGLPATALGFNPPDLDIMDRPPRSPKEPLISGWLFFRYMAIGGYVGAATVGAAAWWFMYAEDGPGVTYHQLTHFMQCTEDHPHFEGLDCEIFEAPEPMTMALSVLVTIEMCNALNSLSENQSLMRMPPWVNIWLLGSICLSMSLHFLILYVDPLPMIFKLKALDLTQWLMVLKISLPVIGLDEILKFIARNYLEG

## [O]=[V]([O-])([O-])[O-] [Vanadate, reference compound]
Ca^2+-ATPase (SERCA1a)
  IC50: 10.4 ± 2.4 µM
Na^+,K^+-ATPase
  IC50: 6 ± 1 nM
C. albicans Pma1
  IC50: 230 ± 50 nM
[1]
  MIC: >750 µM
[2]
  MIC: >750 µM
